Reference: patent publication US20120264928A1, “THERAPEUTIC PHARMACEUTICAL AGENT FOR DISEASES ASSOCIATED WITH DECREASE IN FUNCTION OF GNE PROTEIN, FOOD COMPOSITION, AND FOOD ADDITIVE” (JAPAN HEALTH SCIENCES FOUNDATION, priority 2009, published 2012)

Assays:
Format in all cases: in vivo
DMRV model mice [1] = assay: Amount of NeuAc in muscle tissue of treated DMRV model mice; conditions: vs placebo group
Description: DMRV model mice were GNE^(−/−)hGNED176V-Tg described in Japanese Unexamined Patent Application Publication No. 2007-312641. Healthy litters having no GNE gene mutation were used as controls. The mice in the present example freely take water and feed and ingest 14 mg/kg body weight/day of N-acetylneuraminic acid compound on average.
In the case that the sample was cultured cells, the cells were washed with PBS three times, and 400 p. 1 of 50 mM sulfuric acid was added to the cells. The cells were incubated at 80° C. for 60 minutes and were hydrolyzed to release NeuAc and NeuGc. In the case that the sample was a piece of tissue, the tissue was frozen, was pulverized with an air hammer, and was homogenized in a KCl-tris solution. The precipitate was again washed with the KCl-tris solution and was hydrolyzed in 50 mM sulfuric acid at 80° C. for one hour to release NeuAc and NeuGc. 400 μl of 7 mmol 1,2-diamino-4,5-methylenedioxybenzene, dihydrochloride (MDB, Dojindo Laboratories) solution (15.8 mg MDB, 48.8 mg Na2S2O4, and 735 μl 2-mercaptoethanol were dissolved in distilled water so as to prepare a 10-ml solution) was added to the sample containing free NeuAc and NeuGc and was allowed to react at 60° C. for 2.5 hours. The fluorescent derivative thus prepared was analyzed with HPLC (JASCO Corp.) using 0.05 to 5 nmol/μl Neu5Ac and Neu5Gc standards. The amount of protein from the tissue was measured with a Bio-Rad Protein Assay kit (Bio-Rad Laboratories).
(§1) 20 mg/kg body weight/day of ManNAc (N=6), NeuAc (N=5), or sialyllactose (N=7) dissolved in drinking water was administered to the DMRV model mice between 11- to 15-week old and 56- to 58-week old for 43 to 45 weeks. 40 mg (N=5) or 400 mg/kg body weight/day (N=4) of Ac4ManNAc dissolved in drinking water was administered to the DMRV model mice of the same ages for 43 to 47 weeks. Drinking water free of the pharmaceutical agents was supplied to mice in a placebo group.
(§2) During the administration of the pharmaceutical agent, the measurement of the body weight, the determination of the survival rate, blood collection (0, 25, and 49 days after the start of administration, and thereafter at intervals of 28 days), and a hanging test (0 and 49 days after the start of administration, and thereafter at intervals of 56 days) were performed at regular intervals. Survivors after the administration (ManNAc-treated group: N=5, NeuAc-treated group: N=5, sialyllactose group: N=6) were subjected to a treadmill test. A muscle tissue was then excised and was subjected to a muscle contraction test, the measurement of the amount of NeuAc, and pathological observation.

DMRV model mice [2] = assay: Muscle contraction test; conditions: vs placebo group
Description: as §1, §2
After pentobarbital sodium (40 mg/kg body weight) was intraperitoneally administered to a mouse for anesthesia, a continuous muscle tissue of the tibialis anterior muscle and the gastrocnemius muscle was isolated. A terminal tendon of the isolated muscle tissue and the tibia were tied with a thread. The ends of the thread were connected at right angles to a tube for hanging a thread (a muscle length controller) and an isotonic transducer (TB-651T (for the gastrocnemius muscle) or TB-653TD-112S (for the tibialis anterior muscle), Nihon Kohden Corp.). The muscle tissue was placed in a lactated Ringer's solution (95% O2, 5% CO2). An electrostimulator (SEN-3301, Nihon Kohden Corp.) and an amplifier (PP-106H, Nihon Kohden Corp.) were used to expand the muscle tissue while providing 400 μs twitch stimulation. A length (L0) at which the maximum contractile force was produced and the contractile force (isometric contractile force: Pt) at that length were measured. While the muscle tissue was held at the length (L0) at which the contractile force was produced, the electrical stimulation was […] to 3 ms. The maximum contractile force (P0) was determined while 10- to 1000-Hz repetitive stimulation was provided 300 to 600 times at intervals of 2 minutes or more. After the measurement, the average cross-sectional area (CSA: muscle weight/L0) of the muscle tissue was calculated.

DMRV model mice [3] = assay: Number of formed rimmed vacuoles and amyloid-positive cells; conditions: 20 mg/kg body weight/day in drinking water; vs placebo group
Description: as §1, §2
In six H-E stained pathological sections having a thickness of 10 μm prepared at intervals of 100 μm, the number of rimmed vacuoles observed over the cross section of the muscular tissue was counted. In order to count the number of amyloid-positive protein deposits, the number of cells having deposits labeled with an anti-amyloid antibody (6E10) observed over the cross section of the muscular tissue was counted in six sections having a thickness of 10 μm prepared at intervals of 100 μm.

DMRV model mice [4] = assay: Treadmill test, endurance test; conditions: vs placebo group
Description: as §1, §2
In order to familiarize a mouse with the apparatus, training was started one week prior to testing. In this period, the mouse was made to run on a slope of 7 degrees at a velocity in the range of 5 to 15 m/min for 30 minutes every day for 7 days. As a motor ability test, the velocity was increased by 10 m/min per minute from the initial velocity of 20 m/min. The accumulated running distance up to the point where the mouse could not run anymore was measured. As an endurance test, a mouse was made to run on a slope of 7 degrees at a velocity of 20 m/min for 60 minutes. The mouse was then made to run for another 3 minutes, during which the times of the electrical stimulation given to the mouse by a stimulation grid disposed at the end of the running lane were measured.

DMRV model mice [5] = assay: Blood creatine kinase activity; conditions: 20 mg/kg body weight/day in drinking water; vs placebo group
Description: as §1, §2
During the administration of the pharmaceutical agent, blood was collected from a tail of a mouse at regular intervals. The blood was centrifuged to prepare blood serum. Blood creatine activity was measured with a Determiner CPK-L kit (Kyowa Medex Co., Ltd.). The blood serum was electrophoresed using a Titan Gel Isoenzyme kit (Helen Laboratories) to identify creatine kinase. It is known that creatine kinase moves into blood when strenuous exercise or myopathy damages muscle fibers.

[6] = 20 mg/kg body weight/day in drinking water

CC(=O)N[C@H]1[C@H]([C@H](O)[C@H](O)CO)O[C@@](O[C@H]2[C@@H](O)[C@@H](CO)O[C@@H](O[C@H]3[C@H](O)[C@@H](O)C(O)O[C@@H]3CO)[C@@H]2O)(C(=O)O)C[C@@H]1O (stereo partly drawn) [sialyllactose, NeuAcα2-3Galβ1-4Glc]
significantly higher: amount of NeuAc in the muscle tissue (DMRV model mice [1]; [6]) | Pt per cross-sectional area of the muscle (DMRV model mice [2]; [6]) | cross-sectional area of the gastrocnemius muscle (DMRV model mice [2]; [6]) | specific contractile force of the gastrocnemius muscle (P0 per cross-sectional area of the muscle) (DMRV model mice [2]; [6])
significantly lower: number of amyloid positive cells (DMRV model mice [3]) | number of rimmed vacuoles (DMRV model mice [3]) | times of electrical stimulation for 3 minutes (DMRV model mice [4]; [6]) | blood creatine kinase activity (DMRV model mice [5])

CC(=O)N[C@@H]1C(O)O[C@H](CO)[C@@H](O)[C@@H]1O (stereo partly drawn) [ManNAc, N-acetylmannosamine, reference compound]
significantly higher: amount of NeuAc in the muscle tissue (DMRV model mice [1]; [6]) | Pt per cross-sectional area of the muscle (DMRV model mice [2]; [6]) | cross-sectional area of the gastrocnemius muscle (DMRV model mice [2]; [6]) | specific contractile force of the gastrocnemius muscle (P0 per cross-sectional area of the muscle) (DMRV model mice [2]; [6])
significantly lower: number of amyloid positive cells (DMRV model mice [3]) | number of rimmed vacuoles (DMRV model mice [3]) | times of electrical stimulation for 3 minutes (DMRV model mice [4]; [6]) | blood creatine kinase activity (DMRV model mice [5])

CC(=O)N[C@H]1[C@H]([C@H](O)[C@H](O)CO)OC(O)(C(=O)O)C[C@@H]1O (stereo partly drawn) [NeuAc, N-acetylneuraminic acid]
significantly lower: number of amyloid positive cells (DMRV model mice [3]) | number of rimmed vacuoles (DMRV model mice [3]) | times of electrical stimulation for 3 minutes (DMRV model mice [4]; [6]) | blood creatine kinase activity (DMRV model mice [5])
significantly higher: amount of NeuAc in the muscle tissue (DMRV model mice [1]; [6]) | Pt per cross-sectional area of the muscle (DMRV model mice [2]; [6]) | cross-sectional area of the gastrocnemius muscle (DMRV model mice [2]; [6]) | specific contractile force of the gastrocnemius muscle (P0 per cross-sectional area of the muscle) (DMRV model mice [2]; [6])

CC(=O)N[C@@H]1C(OC(C)=O)O[C@H](COC(C)=O)[C@@H](OC(C)=O)[C@@H]1OC(C)=O (stereo partly drawn) [Ac4ManNAc, Tetra-O-acetyl-N-acetylmannosamine]
significantly higher: amount of NeuAc in the muscle tissue (DMRV model mice [1]; 400 mg/kg) | specific contractile force of the gastrocnemius muscle (DMRV model mice [2]; 40 mg/kg) | Pt per cross-sectional area of the muscle (DMRV model mice [2]; 400 mg/kg) | specific contractile force of the gastrocnemius muscle (DMRV model mice [2]; 400 mg/kg)
significantly lower: times of electrical stimulation for 3 minutes (DMRV model mice [4]; 40 mg/kg) | times of electrical stimulation for 3 minutes (DMRV model mice [4]; 400 mg/kg)
